One data set concerns the target T1, hCB1 receptors (Homo sapiens, UniProt P21554).
T1 construct: expressed in transfected cells
The data set can be described thus: CB1 cAMP assay (inhibition of forskolin-stimulated cAMP accumulation). The class given is cell-based. The settings on record: for EC50: EC50 of 2-AG + Compound (1 μM), 2-AG in presence of 1 μM compound, forskolin 2 μM, HEK293 and/or CHO hCB1. As to the method:
CB1 cAMP assays. Compounds are evaluated for their ability to modulate the actions of orthosteric ligands at CB1 receptor sites. HEK293 and/or CHO cells stably expressing hCB1 receptors were used for the studies. The CAMP assay was carried out using Perkin Elmer's Lance Ultra cAMP kit following the protocol as described in J Biomol Screen 1999, 4, (6), 303-308. The assays are carried out in a 384-well format using 1000-1500 cells/well. The cells are harvested with non-enzymatic cell dissociation reagent Versene, washed once with Hanks' Balanced Salt Solution (HBSS), and resuspended in the stimulation buffer. […] After 30 minutes of stimulation at room temperature, the Eu-CAMP tracer working solution (5 μL) and Ulight-anti-cAMP working solution (5 μL) are added to the plate and incubated at room temperature for 60 minutes. The data are collected via PerkinElmer Envision plate reader. The EC50 values are determined by nonlinear regression analysis using GraphPad Prism software (FIGS. 2A-2H).
Background: Cyclic AMP is a second messenger, typically raised through Gs and lowered through Gi signalling.

A further data set concerns the target T2, human MGL (hMGL) (Homo sapiens, UniProt Q99685).
T2 construct: made in house; host or cells: E. coli (lysate)
T2 sequence (Q99685 1-303): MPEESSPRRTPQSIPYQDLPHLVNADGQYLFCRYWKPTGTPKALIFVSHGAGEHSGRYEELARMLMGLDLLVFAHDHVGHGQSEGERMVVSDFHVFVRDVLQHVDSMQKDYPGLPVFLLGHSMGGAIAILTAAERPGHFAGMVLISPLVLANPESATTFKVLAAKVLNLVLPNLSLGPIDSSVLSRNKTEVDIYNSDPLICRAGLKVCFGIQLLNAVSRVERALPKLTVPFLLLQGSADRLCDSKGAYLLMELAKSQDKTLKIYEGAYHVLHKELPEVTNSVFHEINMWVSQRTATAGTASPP
The data set can be described thus: Fluorescent assay for human MGL inhibition. The note with it: for hMGL inhibition: at concentrations up to 10 μM, known commercial ligands. The class given is biochemical. As to the method: Fluorescent assay protocol for human MGL. Compound inhibition of hMGL activity was assessed by a fluorometric assay. The assay was carried out in a 96-well plate format and hMGL was monitored by the hydrolysis of the substrate […] or the substrate valeroyl-7-hydroxy-6-methoxy-4-methylcoumarin ester (VHMMCE) to form the fluorescent product, coumarin. Briefly, various concentrations of each compound were preincubated with hMGL (175 ng of total protein in E. coli lysate containing hMGL) for 15 minutes at room temperature. Upon the addition of the substrate, the reaction was incubated at […] for 120 minutes; fluorescence readings were taken every 15 minutes at 360 nm/460 nm (2excitation/λmission) using a Synergy HT Plate Reader (Bio-Tek, Winooski, Vt.). Under the incubation conditions, negligible substrate hydrolysis was observed. External standards were used to convert relative fluorescence units to the amount of 4-methylcoumarin formed. hMGL assays were performed in triplicate for each inhibitor concentration, and IC50 values were determined using Prizm software (FIGS. 1A-1G).

In another data set the target is human CB1 (hCB1) (Homo sapiens, UniProt P21554). The data set can be described thus: Competition binding assay, [3H]CP55,940 displacement, hCB1 HEK293 membranes. The note with it: up to 100 nM; [3H]CP55,940 0.7 nM; 37 °C, 60 min. As to the method:
Cell membrane preparation. Fresh or frozen HEK293 cell pellets (2×10^8 cells expressing human CB1 (hCB1) or rat CB1 (rCB1)) were resuspended in 5 ml of TME [25 mM Tris, 5 mM MgCl2, 1 mM EDTA pH 7.4] supplemented with 0.5% protease inhibitor cocktail (Sigma, St Louis, MO, USA). Cells were lysed under nitrogen cavitation for 30 min at 1000 psi on ice, centrifuged at 1000 g for 10 min, and the supernatant was collected. The pellet was washed three times with 10 ml of TME containing protease inhibitors and the combined supernatant was centrifuged at 100,000 g for 45 min at 4 °C. The resultant membrane pellet was used immediately or stored at −80 °C. Protein concentration for the resulting membrane fraction was obtained using Bradford Assay.
Competition Binding Assay. Competition binding assays were performed in a 96-well format. Assays were carried out using [3H] CP55,940 and Tris binding buffer (50 mM Tris-HCl, 50 mM Tris-base, 0.1% BSA, pH 7.4), up to a total assay volume of 500 μL. The concentration of [^3H]CP55,940 used in our displacement assays was 0.7 nM. […] Radioactivity was quantified by liquid scintillation spectrometry. […] Ki values were determined by fitting the data to non-linear regression curve using Graph Pad Prism software.

A short description of data set [1]: Kinetic aqueous solubility by laser-based nephelometry. The class given is physicochemical. The note with it: PBS buffer pH 7.4, 120 min, room temperature; relative to ZCZ011. As to the method: Aqueous solubility assays. The kinetic aqueous solubility of the compounds is determined using laser-based nephelometry. Linear serial dilutions of each compound are prepared in PBS buffer (pH=7.4) from DMSO stock solution (10 mM) in a 384-well plate. The compound solutions are mixed and incubated for 120 minutes at room temperature, followed by approximating the precipitation points for each compound using light scattering (laser-based BMG Labtech NEPHELOstar PLUS microplate nephelometer). In some aspects, the final solutions may contain 0 mM, 55 mM, 135 mM, or 500 mM of mannitol.

[2] abbreviates: hMGL in E. coli lysate, 15 min preincubation, AHMMCE or VHMMCE substrate, read-out: MGL inhibition IC50.

Molecules are shown by their SMILES. Read-outs that look alike come from different tables or passages of the source.

T1 sequence (P21554 whole entry): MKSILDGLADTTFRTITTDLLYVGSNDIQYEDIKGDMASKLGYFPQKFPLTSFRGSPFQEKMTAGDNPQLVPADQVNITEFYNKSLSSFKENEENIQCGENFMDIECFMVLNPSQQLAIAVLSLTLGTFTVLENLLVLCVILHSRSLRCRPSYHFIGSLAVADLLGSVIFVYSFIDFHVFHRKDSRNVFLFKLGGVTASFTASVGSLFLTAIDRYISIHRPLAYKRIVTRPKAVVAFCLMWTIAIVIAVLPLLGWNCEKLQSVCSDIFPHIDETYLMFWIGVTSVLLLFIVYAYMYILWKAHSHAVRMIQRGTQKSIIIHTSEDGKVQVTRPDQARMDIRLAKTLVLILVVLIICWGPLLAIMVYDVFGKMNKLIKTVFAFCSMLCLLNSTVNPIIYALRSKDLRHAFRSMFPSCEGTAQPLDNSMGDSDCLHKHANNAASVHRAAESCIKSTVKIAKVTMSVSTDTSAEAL
Sequence of human CB1 (hCB1) (P21554 whole entry): as above

The EC50 is the concentration that produces a half-maximal response. For orientation: IC50 means the point on the concentration scale where inhibition reaches its midpoint. Turning to `O=[N+]([O-])C[C@H](c1ccc(B(O)O)cc1)c1c(-c2ccccc2)[nH]c2ccccc12` (single isomer, unassigned) [Compound 2], the EC50 at hCB1 receptors was 51.3 nM. Moreover, the IC50 on human MGL (hMGL) (setting [2]) came to 271 nM.

For `O=[N+]([O-])C[C@@H](c1ccc(B(O)O)cc1)c1c(-c2ccccc2)[nH]c2ccccc12` (single isomer, unassigned) [Compound 3], on hCB1 receptors, the EC50 was found to be 37.5 nM. For the same compound, the “allosteric modulation of 2-AG and CP-55,940 at CB1” value at hCB1 receptors (in words) was “positive allosteric modulator of both 2-AG and CP-55,940”. On hCB1 receptors (orthosteric ligand 2-AG, positive allosteric modulator), the “increase of potency of 2-AG at CB1” value is reported as ~ 2 fold. Besides, the “increase of potency of CP-55,940 at CB1” value at hCB1 receptors (orthosteric ligand CP-55,940, positive allosteric modulator) is ~ 2 fold. Further, the IC50 on human MGL (hMGL) (setting [2]) amounted to 58.8 nM.

For `O=[N+]([O-])CC(c1ccc(B(O)O)cc1)c1c(-c2ccccc2)[nH]c2ccccc12` (stereo not drawn) [Compound 1, (4-(2-nitro-1-(2-phenyl-1H-indol-3-yl)ethyl)phenyl)boronic acid], the EC50 on hCB1 receptors amounted to 102 nM. Moreover, the “competition with CP-55,940” value on human CB1 (hCB1) is recorded as “do not compete with CP-55,940”. The IC50 at human MGL (hMGL) (setting [2]) turned out to be 63.5 nM. The “aqueous solubility compared to ZCZ011” value in data set [1] is on record as above 100 fold.

On to `O=[N+]([O-])CC(c1cccc(B(O)O)c1)c1c(-c2ccccc2)[nH]c2ccccc12` (stereo not drawn) [Compound 4, (3-(2-nitro-1-(2-phenyl-1H-indol-3-yl)ethyl)phenyl)boronic acid], for which the EC50 at hCB1 receptors was 40.8 nM. The “competition with CP-55,940” value at human CB1 (hCB1) is listed as “do not compete with CP-55,940”. For the same compound, at human MGL (hMGL) (setting [2]), the IC50 turned out to be 979 nM.

Regarding `O=[N+]([O-])CC(c1ccccc1)c1c(-c2ccc(B(O)O)cc2)[nH]c2ccccc12` (stereo not drawn) [Compound 5, (4-(3-(2-nitro-1-phenylethyl)-1H-indol-2-yl)phenyl)boronic acid], the EC50 at hCB1 receptors stood at 57 nM.

Consider `O=[N+]([O-])CC(c1ccc(B(O)O)cc1)c1c(-c2ccc(N=C=S)cc2)[nH]c2ccccc12` (stereo not drawn) [Compound 6, (4-(1-(2-(4-isothiocyanatophenyl)-1H-indol-3-yl)-2-nitroethyl)phenyl)boronic acid], for which the EC50 on hCB1 receptors is 57.2 nM.

On to `O=[N+]([O-])CC(c1ccccc1)c1c(-c2ccccc2)[nH]c2cc(B(O)O)ccc12` (stereo not drawn) [Compound 8, (3-(2-nitro-1-phenylethyl)-2-phenyl-1H-indol-6-yl)boronic acid], for which the IC50 on human MGL (hMGL) (setting [2]) is 46.8 nM.

As for `O=[N+]([O-])CC(c1ccccc1)c1c(-c2ccc(S(=O)(=O)F)cc2)[nH]c2ccccc12` (stereo not drawn) [Compound 9, 4-(3-(2-nitro-1-phenylethyl)-1H-indol-2-yl)benzenesulfonyl fluoride], the IC50 at human MGL (hMGL) is 32.3 nM.

As to `O=[N+]([O-])CC(c1ccc(N=C=S)cc1)c1c(-c2ccccc2)[nH]c2ccccc12` (stereo not drawn) [Compound 10, 3-(1-(4-isothiocyanatophenyl)-2-nitroethyl)-2-phenyl-1H-indole], the IC50 at human MGL (hMGL) (setting [2]) turned out to be 1160 nM.

`O=[N+]([O-])CC(c1ccccc1)c1c(-c2ccccc2)[nH]c2ccccc12` (stereo not drawn) [GAT211, 3-(2-nitro-1-phenylethyl)-2-phenyl-1H-indole, reference compound]: on human MGL (hMGL), the hMGL inhibition entry is “did not show any hMGL inhibition at concentrations up to 10 μM”.

For the compound `Cc1ccc2c(C(C[N+](=O)[O-])c3cccs3)c(-c3ccccc3)[nH]c2c1` (stereo not drawn) [ZCZ011, 6-methyl-3-(2-nitro-1-(thiophen-2-yl)ethyl)-2-phenyl-1H-indole, reference compound], the hMGL inhibition result on human MGL (hMGL) is on record as “did not show any hMGL inhibition at concentrations up to 10 μM”.

These data come from US20260364098A1, “HETEROARYL COMPOUNDS AS ENDOCANNABINOID SYSTEM MODULATORS AND USES THEREOF” (Northeastern University, priority 2023, published 2026).
